Results taken from patent US3932471A, “Azide” (priority 1973, dated 1976).
Values after ≈ are worked out from the molar mass of the structure shown.

Tests used:
Type in all cases: in vivo
[1] = system: Spotted Cucumber Beetle; test: Systemic test against spotted cucumber beetle; settings: Diabrotica undecimpunctata
Source text: (§1) Systemic Test of Compound 7268 Against Lygus Bug and Spotted Cucumber Beetle
(§2) The techniques used are essentially the same for the systemic tests described above in Example 15. The test compound is Compound 7268. There is one Sieva bean plant per pot and five adult insects are caged on each plant. One plant is used for each test species.

[2] = system: housefly (Musca domestica); test: Housefly spray test (HF); settings: 72 h, contact activity rating, 50% mortality, three days
Protocol: (§3) The compounds are evaluated for biological activity against the following representative pests: Mexican bean beetle (Epilachna varivestis), Southern army worm (Prodenia eridania), housefly (Musca domestica), bean aphid (Aphis fabae), and red spider mite (Tetranychus sp.). The last two pests are treated both by contact and systemic application.
(§4) For purposes of comparison, results obtained with known Compound 7472, Compound 7577, and aldicarb are included in the test results. Each test compound is rated using the following scale:
This test determines the insecticidal activity of the compound being tested against adult houseflies, Musca domestica. Stock formulations containing 500 ppm of each test chemical are prepared using the procedure described in Example 15 and are diluted to obtain the appropriate lower concentrations.
Ten adult flies are placed in a cylindrical screen cage 11/2 by 4 inches fabricated from 20-mesh stainless steel screening and are sprayed with 50 ml of the stock or diluted formulation. The flies are supplied food and drink from a dextrose solution by draping a paper wick over the outside of the screen cylinder and are able to feed and drink ad libitum. Percent mortality obtained is determined three days after treatment. Results of this test are shown in Table 7 as HF (housefly spray test).

[3] = system: Lygus Bug; test: Systemic test against Lygus bug
Source text: as §1, §2

[4] = system: Mexican Bean Beetle Larvae; test: Residual systemic activity against Mexican bean beetle larvae; settings: Epilachna varivestis
Source text: Residual Systemic Activity of Compound 7268 Against Mexican Bean Beetle Larvae
Three furrows are opened in soil contained in 8 × 10 × 3 inch fiber pans and 12 Pinto bean seeds are evenly distributed in each furrow. The test compound is Compound 7268. Appropriate volumes of test formulation to give the desired dosages are applied over the seeds in the open furrows, and the furrows are immediately closed. At the indicated weekly intervals, one leaf is harvested from each row, placed onto water agar in a plastic Petri dish, and infested with 10 one-day-old bean beetle larvae. Mortality is determined three days later.

[5] = system: Southern corn rootworm (Diabrotica undecimpunctata howardi); test: Soil activity against Southern corn rootworm; settings: 120 h
Protocol: Activity of Compound 7268 Against Southern Corn Rootworm
The test organism is a strain of Southern corn rootworm (Diabrotica undecimpunctata howardi) resistant to chlorinated hydrocarbon insecticides and the test compound is Compound 7268. Duplicate samples of sand-soil mixtures are treated with appropriate volumes of test formulation to give the desired dosages. The sand-soil samples are in covered paper cups, and several hours after drenching, all cups are given a thorough shaking to provide complete and uniform mixing of the chemical throughout the soil. One day after treatment, two corn seedlings and five rootworms are placed into each cup and the lids replaced. Five days later, mortality is determined.

[6] = system: Southern army worm (Prodenia eridania); test: Southern army worm spray test (AW); settings: 72 h; contact activity rating, 50% mortality, three days
Protocol: as §3, §4
Southern Army Worm Spray Test
Paired fully expanded primary leaves excised from Scarlet runner bean plants are maintained in plastic tubes containing water and sprayed with the test formulation prepared as described in Example 15. After the spray deposit on the leaves is dry, the paired leaves are separated. One leaf is placed onto 1.5 percent water agar and infested with 10 newly hatched Southern army worm larvae. The covered test receptacle is held at 72° F for three days and then the percent mortality is determined. Results of this test are shown in Table 7 as AW (Southern army worm spray test).

[7] = system: melon aphid (Aphis gosyppi); test: Systemic activity against melon aphid; settings: cucumber seedlings
Source text: Systemic Activity of Compound 7268 Against Melon Aphid
The techniques used are essentially the same as for the systemic tests described above in Example 15. The test plants are cucumber seedlings; the test compound is Compound 7268; and the pest is the melon aphid (Aphis gosyppi).

## CNC(=O)ON=C(CSC)C(C)(C)C [Compound 7268, 3,3-dimethyl-2-methylcarbamyloximino-1-methylthiobutane]
[1]; 72 h
  mortality at 560.425 g/ha: 20%
  mortality at 1120.85 g/ha: 30%
  mortality at 2241.7 g/ha: 60%
[1]; 96 h
  mortality at 560.425 g/ha: 40%
  mortality at 1120.85 g/ha: 100%
  mortality at 2241.7 g/ha: 100%
[1]; 144 h
  mortality at 560.425 g/ha: 80%
  mortality at 1120.85 g/ha: 100%
  mortality at 2241.7 g/ha: 100%
[2]
  LC50: 250 to 500 µg/mL (≈ 1150 to 2290 µM)
[3]; 0.5 lb/A, 3 days
  % Mortality: 0%
[3]; 0.5 lb/A, 4 days
  % Mortality: 60%
[3]; 0.5 lb/A, 6 days
  % Mortality: 80%
[3]; 1 lb/A, 3 days
  % Mortality: 80%
[3]; 1 lb/A, 4 days
  % Mortality: 80%
[3]; 1 lb/A, 6 days
  % Mortality: 100%
[3]; 2 lb/A, 3 days
  % Mortality: 100%
[3]; 2 lb/A, 4 days
  % Mortality: 100%
[3]; 2 lb/A, 6 days
  % Mortality: 100%
[4]; 504 h
  mortality at 280.212 g/ha: 100%
  mortality at 560.425 g/ha: 100%
  mortality at 1120.85 g/ha: 100%
[4]; 1176 h
  mortality at 280.212 g/ha: 100%
  mortality at 560.425 g/ha: 100%
  mortality at 1120.85 g/ha: 100%
[4]; 1680 h
  mortality at 280.212 g/ha: 100%
  mortality at 560.425 g/ha: 100%
  mortality at 1120.85 g/ha: 95%
[4]; 1848 h
  mortality at 280.212 g/ha: 95%
  mortality at 560.425 g/ha: 70%
  mortality at 1120.85 g/ha: 95%
[5]
  mortality at 1 lb/6" A: 90%
  mortality at 1.25 lb/6" A: 100%
  mortality at 2.5 lb/6" A: 100%
[6]
  LC50: > 500 µg/mL
[7]; 0.062 lb/A
  % Control: 100%
[7]; 0.125 lb/A
  % Control: 100%
[7]; 0.25 lb/A
  % Control: 100%
[7]; 0.5 lb/A
  % Control: 100%
